Data taken from ChEMBL document CHEMBL1201862, “PubChem BioAssay data set” (2004).
The source made the active and inactive calls.

Experiments:
[1] = tested on: Vero; assay: cells; type: functional; conditions: Chlorocebus sabaeus
[2] = target: T1, Fatty acid synthase (Homo sapiens, UniProt P49327); assay: FAS thioesterase domain inhibitors, dose response, biochemical, endpoint fluorescence intensity, uHTS hits (AID 624327); type: functional;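 further: fluorescence from hydrolysis of an O-methyl fluorescein acyl ester substrate by the enzyme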
T1 sequence (P49327 whole entry, the tested form may be a part): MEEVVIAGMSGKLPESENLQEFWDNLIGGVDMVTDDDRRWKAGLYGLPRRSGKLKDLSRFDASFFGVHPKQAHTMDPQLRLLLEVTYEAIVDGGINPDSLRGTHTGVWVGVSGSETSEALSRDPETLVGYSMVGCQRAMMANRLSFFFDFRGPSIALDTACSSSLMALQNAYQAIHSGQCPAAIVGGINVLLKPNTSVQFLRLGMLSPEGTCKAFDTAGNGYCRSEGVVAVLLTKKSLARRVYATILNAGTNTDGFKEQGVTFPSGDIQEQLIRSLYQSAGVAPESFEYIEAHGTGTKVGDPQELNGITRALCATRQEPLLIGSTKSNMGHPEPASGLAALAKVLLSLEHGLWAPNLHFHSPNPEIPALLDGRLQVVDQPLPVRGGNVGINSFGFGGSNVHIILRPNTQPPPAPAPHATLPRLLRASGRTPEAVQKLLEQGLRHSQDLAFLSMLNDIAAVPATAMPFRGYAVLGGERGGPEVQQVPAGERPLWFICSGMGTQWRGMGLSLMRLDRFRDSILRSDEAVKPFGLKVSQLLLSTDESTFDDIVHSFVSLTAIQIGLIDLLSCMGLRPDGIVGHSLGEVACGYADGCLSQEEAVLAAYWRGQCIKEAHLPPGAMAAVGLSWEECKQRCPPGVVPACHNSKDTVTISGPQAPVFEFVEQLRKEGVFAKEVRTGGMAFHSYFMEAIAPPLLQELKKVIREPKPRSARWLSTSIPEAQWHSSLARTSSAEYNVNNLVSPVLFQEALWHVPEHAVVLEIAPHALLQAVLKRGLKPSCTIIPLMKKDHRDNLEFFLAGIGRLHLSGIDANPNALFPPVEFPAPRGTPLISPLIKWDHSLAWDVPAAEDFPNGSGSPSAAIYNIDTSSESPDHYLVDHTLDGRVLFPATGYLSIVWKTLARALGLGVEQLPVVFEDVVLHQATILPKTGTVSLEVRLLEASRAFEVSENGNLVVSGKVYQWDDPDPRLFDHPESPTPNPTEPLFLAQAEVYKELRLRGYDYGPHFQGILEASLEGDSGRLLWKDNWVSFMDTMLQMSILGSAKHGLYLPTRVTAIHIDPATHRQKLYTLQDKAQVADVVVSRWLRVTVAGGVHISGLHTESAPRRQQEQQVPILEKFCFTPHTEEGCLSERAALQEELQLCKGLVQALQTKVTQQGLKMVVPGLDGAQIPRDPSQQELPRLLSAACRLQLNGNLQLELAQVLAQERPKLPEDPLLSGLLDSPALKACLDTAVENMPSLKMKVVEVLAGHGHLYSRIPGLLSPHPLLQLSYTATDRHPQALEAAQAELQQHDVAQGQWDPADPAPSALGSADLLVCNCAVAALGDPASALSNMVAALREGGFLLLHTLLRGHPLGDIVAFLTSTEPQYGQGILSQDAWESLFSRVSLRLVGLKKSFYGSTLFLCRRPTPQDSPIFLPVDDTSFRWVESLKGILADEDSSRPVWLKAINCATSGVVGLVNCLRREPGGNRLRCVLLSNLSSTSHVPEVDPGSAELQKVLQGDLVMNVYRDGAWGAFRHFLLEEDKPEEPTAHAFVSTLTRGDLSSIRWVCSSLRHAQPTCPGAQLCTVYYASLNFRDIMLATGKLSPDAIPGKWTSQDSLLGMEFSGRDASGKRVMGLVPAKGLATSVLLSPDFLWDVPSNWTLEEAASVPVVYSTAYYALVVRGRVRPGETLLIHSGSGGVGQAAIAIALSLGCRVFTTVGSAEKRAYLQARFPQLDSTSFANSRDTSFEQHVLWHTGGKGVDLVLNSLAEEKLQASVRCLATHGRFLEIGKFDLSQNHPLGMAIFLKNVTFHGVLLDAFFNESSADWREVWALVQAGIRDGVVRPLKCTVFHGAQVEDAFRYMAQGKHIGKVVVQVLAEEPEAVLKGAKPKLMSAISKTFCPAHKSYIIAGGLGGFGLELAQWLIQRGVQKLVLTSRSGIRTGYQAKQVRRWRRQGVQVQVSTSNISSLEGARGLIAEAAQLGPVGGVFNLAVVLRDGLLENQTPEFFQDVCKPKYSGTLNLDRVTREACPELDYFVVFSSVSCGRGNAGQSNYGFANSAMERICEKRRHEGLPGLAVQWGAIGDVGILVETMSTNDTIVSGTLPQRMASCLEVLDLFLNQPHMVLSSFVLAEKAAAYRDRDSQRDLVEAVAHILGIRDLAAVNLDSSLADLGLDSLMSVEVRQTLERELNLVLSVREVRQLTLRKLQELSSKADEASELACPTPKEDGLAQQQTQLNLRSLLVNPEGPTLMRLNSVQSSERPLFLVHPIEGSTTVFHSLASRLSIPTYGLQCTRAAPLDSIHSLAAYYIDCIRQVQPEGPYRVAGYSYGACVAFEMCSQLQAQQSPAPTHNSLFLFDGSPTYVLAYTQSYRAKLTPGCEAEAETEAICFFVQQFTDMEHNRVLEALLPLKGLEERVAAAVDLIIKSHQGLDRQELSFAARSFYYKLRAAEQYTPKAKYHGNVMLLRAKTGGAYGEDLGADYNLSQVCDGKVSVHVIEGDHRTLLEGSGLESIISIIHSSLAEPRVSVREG

[3] = target: Genome polyprotein (dengue virus type 2, UniProt P29990); assay: Dengue-2 NS5 methyltransferase inhibitors, primary screen, biochemical, confirmation dose response (AID 588689); type: functional
Chain of Genome polyprotein (P29990 2492-3391 limits assumed): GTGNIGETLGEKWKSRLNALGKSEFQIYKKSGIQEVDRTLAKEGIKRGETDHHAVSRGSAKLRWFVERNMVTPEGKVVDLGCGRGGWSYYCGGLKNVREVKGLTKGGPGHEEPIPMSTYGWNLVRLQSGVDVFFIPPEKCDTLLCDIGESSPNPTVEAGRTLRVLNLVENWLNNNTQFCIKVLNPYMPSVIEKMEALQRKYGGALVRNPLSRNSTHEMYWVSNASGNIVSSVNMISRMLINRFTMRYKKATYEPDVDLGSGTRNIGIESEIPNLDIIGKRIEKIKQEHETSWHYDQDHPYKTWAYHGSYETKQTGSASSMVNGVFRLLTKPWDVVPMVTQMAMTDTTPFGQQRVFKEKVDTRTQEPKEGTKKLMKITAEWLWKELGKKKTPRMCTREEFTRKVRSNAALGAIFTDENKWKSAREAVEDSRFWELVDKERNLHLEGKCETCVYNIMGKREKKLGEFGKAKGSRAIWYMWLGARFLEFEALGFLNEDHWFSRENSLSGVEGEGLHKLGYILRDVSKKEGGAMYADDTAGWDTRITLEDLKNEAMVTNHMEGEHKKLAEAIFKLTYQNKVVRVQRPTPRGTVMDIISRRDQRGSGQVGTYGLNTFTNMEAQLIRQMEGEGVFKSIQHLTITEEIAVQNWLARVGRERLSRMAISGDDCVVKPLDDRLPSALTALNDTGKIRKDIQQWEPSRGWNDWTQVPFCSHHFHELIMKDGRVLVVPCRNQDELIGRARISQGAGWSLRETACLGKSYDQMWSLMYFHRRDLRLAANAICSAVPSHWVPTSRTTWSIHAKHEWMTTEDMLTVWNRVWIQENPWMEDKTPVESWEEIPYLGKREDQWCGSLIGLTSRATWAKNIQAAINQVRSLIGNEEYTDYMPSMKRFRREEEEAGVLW

[4] = target: T1, Fatty acid synthase; assay: FAS thioesterase domain inhibitors, dose response, biochemical, kinetic fluorescence intensity (AID 624326); type: functional;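 further: rate of fluorescence rise from hydrolysis of a fluorogenic O-methyl fluorescein ester substrate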
[5] = target: T2, Microphthalmia-associated transcription factor (Homo sapiens, UniProt O75030); assay: TRPM1 promoter luciferase signal decrease, dose response, MITF inhibitor project, cell-based, SK-MEL-5, cherry-picked, set 3 (AID 493073); type: functional
T2 sequence (O75030 whole entry): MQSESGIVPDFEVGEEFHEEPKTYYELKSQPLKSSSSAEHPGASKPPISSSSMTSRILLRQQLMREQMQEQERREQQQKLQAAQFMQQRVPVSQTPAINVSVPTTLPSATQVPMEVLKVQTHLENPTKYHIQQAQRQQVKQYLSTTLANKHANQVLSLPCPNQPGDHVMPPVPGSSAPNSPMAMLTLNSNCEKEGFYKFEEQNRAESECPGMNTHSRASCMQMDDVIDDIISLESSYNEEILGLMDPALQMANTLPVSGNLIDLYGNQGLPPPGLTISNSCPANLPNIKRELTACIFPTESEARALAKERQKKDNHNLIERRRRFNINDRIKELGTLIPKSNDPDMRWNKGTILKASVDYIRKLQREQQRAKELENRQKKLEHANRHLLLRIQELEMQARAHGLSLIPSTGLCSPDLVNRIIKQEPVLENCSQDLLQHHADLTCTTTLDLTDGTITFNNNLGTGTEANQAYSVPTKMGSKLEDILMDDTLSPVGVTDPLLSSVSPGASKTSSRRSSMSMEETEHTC

[6] = target: T3, Calpain-2 catalytic subunit (Sus scrofa, UniProt P43367); assay: pig calpain II inhibitor potency, dose response, biochemical, fluorogenic peptide substrate (AID 1420); type: functional
T3 sequence (P43367 whole entry): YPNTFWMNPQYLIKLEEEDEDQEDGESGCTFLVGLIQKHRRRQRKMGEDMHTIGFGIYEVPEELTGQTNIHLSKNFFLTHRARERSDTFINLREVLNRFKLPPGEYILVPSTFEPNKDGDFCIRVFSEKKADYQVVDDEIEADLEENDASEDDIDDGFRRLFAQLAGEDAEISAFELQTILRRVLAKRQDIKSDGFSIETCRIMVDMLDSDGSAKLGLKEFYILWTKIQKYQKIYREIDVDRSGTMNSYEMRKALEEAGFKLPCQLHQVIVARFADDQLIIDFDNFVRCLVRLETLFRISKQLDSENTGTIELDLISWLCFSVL

[7] = tested on: Streptococcus sp. 'group A'; assay: growth inhibition of control SK(-) GAS strain, dose response, counter-screen for streptokinase expression inhibitor project, luminescence, kanamycin, BacTiterGlo, confirmation (AID 1900); type: functional, organism-based
[8] = Luminescence Cell-Based Dose Response HTS to Identify Inhibitors of 5'UTR Stem-Loop Driven Prion Protein mRNA Translation in H4 Neuroglioblastoma Cells. [Related pubchem assays: 1827 (Project Summary), 1813 (Primary HTS)]; type: functional
[9] = inhibitors of intracellular T. cruzi replication, confirmation, NIH3T3 host cells, beta-gal luminescence (AID 2044); type: functional, cell-based;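 further: intracellular parasites grown in NIH/3T3 mouse fibroblasts as host cells; luminescent beta-galactosidase reporter signal from transgenic T. cruzi replicating inside host cells; inhibitors lower the luminescence signal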
[10] = target: Beta-galactosidase (Escherichia coli, UniProt Q8VNN2); assay: PubChem AID 485352; type: functional
Chain of Beta-galactosidase (Q8VNN2 whole entry): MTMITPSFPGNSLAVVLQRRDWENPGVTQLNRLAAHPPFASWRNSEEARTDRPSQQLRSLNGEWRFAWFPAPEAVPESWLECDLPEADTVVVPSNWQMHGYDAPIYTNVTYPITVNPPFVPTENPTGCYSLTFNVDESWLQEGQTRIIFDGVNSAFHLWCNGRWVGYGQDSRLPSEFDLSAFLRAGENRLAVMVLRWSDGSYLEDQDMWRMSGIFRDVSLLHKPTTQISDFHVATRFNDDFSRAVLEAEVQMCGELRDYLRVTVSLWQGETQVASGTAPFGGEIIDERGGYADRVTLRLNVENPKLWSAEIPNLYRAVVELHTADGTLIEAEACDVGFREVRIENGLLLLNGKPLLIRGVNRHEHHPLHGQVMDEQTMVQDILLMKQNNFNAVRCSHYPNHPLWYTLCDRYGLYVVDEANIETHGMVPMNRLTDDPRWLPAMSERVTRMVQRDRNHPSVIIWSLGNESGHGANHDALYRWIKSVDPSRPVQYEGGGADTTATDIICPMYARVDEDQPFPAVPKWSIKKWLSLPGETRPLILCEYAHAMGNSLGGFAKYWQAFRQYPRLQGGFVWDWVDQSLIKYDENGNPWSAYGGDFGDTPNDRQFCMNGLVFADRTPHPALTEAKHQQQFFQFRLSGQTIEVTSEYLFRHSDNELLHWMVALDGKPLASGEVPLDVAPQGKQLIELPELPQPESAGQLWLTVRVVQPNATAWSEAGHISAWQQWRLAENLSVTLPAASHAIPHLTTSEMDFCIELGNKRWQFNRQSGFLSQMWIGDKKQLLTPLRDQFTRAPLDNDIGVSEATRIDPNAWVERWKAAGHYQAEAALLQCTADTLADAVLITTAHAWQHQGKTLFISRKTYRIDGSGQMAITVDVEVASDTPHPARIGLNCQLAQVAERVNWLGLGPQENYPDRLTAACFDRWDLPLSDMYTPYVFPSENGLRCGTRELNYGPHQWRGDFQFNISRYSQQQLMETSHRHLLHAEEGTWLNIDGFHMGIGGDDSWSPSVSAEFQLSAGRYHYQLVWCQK

[11] = cytotoxicity toward NIH3T3 fibroblasts, dose response, counter-screen, cell-based, ATP luminescence, mouse fibroblasts (AID 2010); type: functional;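 further: cells exposed to compound for about 90 hours before reading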
[12] = inhibitors of firefly luciferase expression or activity, dose response, H4 neuroglioma cells, luminescence (AID 1990); type: functional, cell-based
[13] = tested on: Streptococcus; assay: Group A Streptococcus viability loss, dose response, counter-screen for streptokinase expression inhibitor project, luminescence, BacTiterGlo (AID 1915); type: functional, organism-based;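 further: potency for reduction of bacterial viability or growth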
[14] = inhibitors of SNCA 5'UTR-driven reporter translation, confirmation, H4 neuroglioma cells, luminescence (AID 1988); type: functional, cell-based
[15] = target: T4, Type-1 angiotensin II receptor (Homo sapiens, UniProt P30556); assay: AT1 receptor antagonists, dose response, selectivity assay for APJ receptor antagonist project, cell-based, uHTS hits (AID 463214); type: functional;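 further: antagonist potency against angiotensin II stimulated AT1 response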
T4 sequence (P30556 whole entry): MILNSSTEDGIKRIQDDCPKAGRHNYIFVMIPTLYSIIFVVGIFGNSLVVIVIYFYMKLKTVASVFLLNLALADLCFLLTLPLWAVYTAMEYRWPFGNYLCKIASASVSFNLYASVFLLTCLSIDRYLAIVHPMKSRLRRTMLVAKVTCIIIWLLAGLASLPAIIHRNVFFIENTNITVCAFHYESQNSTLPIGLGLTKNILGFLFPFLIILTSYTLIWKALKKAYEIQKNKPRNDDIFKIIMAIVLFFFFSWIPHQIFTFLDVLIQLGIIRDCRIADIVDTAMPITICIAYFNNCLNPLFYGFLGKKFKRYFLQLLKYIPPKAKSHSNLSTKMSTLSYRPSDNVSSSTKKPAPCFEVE

[16] = target: T5, Aminopeptidase N (Plasmodium falciparum FcB1/Columbia, UniProt O96935); assay: P. falciparum M1AAP inhibitors, biochemical, fluorogenic H-Leu-NHMec substrate, 1536-well (AID 1445); set-up: species or system Plasmodium falciparum 3D7, 3D7
T5 sequence (O96935 whole entry): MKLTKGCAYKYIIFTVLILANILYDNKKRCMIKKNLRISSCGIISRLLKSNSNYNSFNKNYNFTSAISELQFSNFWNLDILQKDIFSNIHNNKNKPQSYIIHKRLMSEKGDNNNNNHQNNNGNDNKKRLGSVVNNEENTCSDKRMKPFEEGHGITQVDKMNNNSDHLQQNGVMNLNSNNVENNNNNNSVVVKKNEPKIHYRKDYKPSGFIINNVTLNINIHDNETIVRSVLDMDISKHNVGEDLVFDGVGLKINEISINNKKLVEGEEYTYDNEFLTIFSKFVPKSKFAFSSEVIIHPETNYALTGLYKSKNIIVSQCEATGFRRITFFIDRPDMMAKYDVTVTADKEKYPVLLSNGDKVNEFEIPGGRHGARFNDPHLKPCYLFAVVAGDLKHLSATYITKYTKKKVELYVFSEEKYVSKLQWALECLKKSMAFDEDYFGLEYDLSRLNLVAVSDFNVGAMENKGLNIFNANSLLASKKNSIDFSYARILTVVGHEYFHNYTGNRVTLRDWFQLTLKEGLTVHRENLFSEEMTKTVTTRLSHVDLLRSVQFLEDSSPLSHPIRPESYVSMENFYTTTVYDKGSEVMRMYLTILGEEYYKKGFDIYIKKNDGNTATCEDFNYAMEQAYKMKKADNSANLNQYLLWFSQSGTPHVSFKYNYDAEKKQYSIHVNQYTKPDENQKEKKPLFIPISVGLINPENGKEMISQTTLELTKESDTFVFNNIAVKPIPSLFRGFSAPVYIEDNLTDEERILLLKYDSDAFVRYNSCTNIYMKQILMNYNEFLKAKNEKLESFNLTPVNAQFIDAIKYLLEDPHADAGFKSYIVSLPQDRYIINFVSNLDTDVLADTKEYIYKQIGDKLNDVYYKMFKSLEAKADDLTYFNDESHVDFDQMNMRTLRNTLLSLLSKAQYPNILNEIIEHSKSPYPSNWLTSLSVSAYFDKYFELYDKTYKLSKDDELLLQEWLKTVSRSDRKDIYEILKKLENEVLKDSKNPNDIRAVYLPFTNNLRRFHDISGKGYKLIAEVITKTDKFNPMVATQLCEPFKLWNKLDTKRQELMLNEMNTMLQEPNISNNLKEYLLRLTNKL

[17] = target: T6, Coagulation factor XII (Homo sapiens, UniProt P00748); type: functional;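 further: activated factor XIIa alpha cleaving a fluorogenic AMC peptide substrate; inhibitor potency from loss of enzyme activity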
T6 sequence (P00748 whole entry): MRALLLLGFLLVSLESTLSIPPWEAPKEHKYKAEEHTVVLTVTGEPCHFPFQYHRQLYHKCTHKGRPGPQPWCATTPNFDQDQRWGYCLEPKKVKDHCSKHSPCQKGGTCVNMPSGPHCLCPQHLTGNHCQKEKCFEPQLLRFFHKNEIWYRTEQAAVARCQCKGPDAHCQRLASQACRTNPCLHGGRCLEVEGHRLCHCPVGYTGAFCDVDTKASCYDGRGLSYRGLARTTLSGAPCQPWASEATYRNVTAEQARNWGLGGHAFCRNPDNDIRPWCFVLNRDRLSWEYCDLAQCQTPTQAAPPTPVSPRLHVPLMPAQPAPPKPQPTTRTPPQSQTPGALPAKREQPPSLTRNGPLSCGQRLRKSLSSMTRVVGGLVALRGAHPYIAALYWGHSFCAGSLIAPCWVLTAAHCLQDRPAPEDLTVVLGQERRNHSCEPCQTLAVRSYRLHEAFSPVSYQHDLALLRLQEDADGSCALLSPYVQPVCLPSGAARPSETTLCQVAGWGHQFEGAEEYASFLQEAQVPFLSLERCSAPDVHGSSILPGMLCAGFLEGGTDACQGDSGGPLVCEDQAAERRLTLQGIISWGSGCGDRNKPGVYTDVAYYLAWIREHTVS

With C=C1C(=O)OC2CC3(C)OC3CCC(C)=CC(OC(C)=O)C12 (stereo not given) the CC50 [1] was 23.8 µM (active).
For CN(C)CC1CCC/C(=C\c2ccc(OC(=O)/C=C/c3ccccc3)cc2)C1=O (stereo not given), the CC50 [1] was > 25 µM (active).
For CCOc1cc(/C=C(/C#N)c2ccc(Cl)cc2)cc(Cl)c1OCC(=O)O, the IC50 [2] was 6.78 µM (active), the IC50 [3] was 34.5 µM (active) and the IC50 [4] was 10.4 µM (active). For the same molecule, the AC50 [5] was 5.61 µM (active) and the IC50 [6] was 3.06 µM (not active).
In the case of CC(C)(C)c1cc(Cl)c(O)c(NC(=S)NC(=O)c2cccnc2)c1, the EC50 [7] is reported as 0.448 µM (active), the EC50 [8] is reported as 15 µM (active) and the EC50 [9] is reported as 2.56 µM (active). For the same molecule, the EC50 [10] was > 40 µM (inactive), the EC50 [11] was 6.97 µM (active) and the EC50 [12] was 16.5 µM (active). For the same molecule, the EC50 [13] was 6.42 µM (active), the EC50 [14] was > 120 µM (not active) and the IC50 [15] was 22.2 µM (not active).
For OCCN1C[C@H](O)[C@@H](O)[C@H](O)[C@H]1CO [MIGLITOL], the EC50 [10] was > 40 µM (inactive) and the IC50 [15] was > 40 µM (not active).
For COc1ccccc1/C=C1\SC(=S)N(C(C(=O)O)c2ccccc2)C1=O (stereo not given), the IC50 [3] was 39.1 µM (active) and the IC50 [16] was 26 µM (active).
For COc1ccc(C(=O)NC(=S)Nc2nnn(C)n2)cc1, the EC50 [10] was > 40 µM (inactive) and the IC50 [15] was > 40 µM (not active).
For CC(C)c1ccc(O)c(NC(=S)NC(=O)c2cccnc2)c1, the EC50 [10] was > 40 µM (inactive), the IC50 [17] was > 50 µM (inactive) and the IC50 [15] was 23.2 µM (not active).
